The source made the active and inactive calls. No cut-off for these calls is given here.
Key:
HCC1954 [1] = test: Anti-tumor activity against HER2-amplified human HCC1954 cells xenografted in NOD/SCID mouse assessed as tumor size at 10 mg/kg, ip administered once daily for 18 days measured after 1 hr last dose (reference value: 497 +/- 82 mm3); type: functional
[2] = AUC (0 to 8 hrs) in NOD/SCID mouse at 40 mg/kg, ip administered as single dose by LC-MS/MS method; type: ADME, organism-based; parameters: time < 8 hr, dose 40 mg/kg, route intraperitoneal; details: in vivo
[3] = biological target: Tyrosine-protein kinase HCK (Homo sapiens) (UniProt P08631); test: Inhibition of human wild type full length HCK (M22 to P526 residues) expressed in bacterial expression system at 10 uM by KinomeScan method relative to control
Sequence of Tyrosine-protein kinase HCK (Homo sapiens) (P08631 2-526 limits assumed): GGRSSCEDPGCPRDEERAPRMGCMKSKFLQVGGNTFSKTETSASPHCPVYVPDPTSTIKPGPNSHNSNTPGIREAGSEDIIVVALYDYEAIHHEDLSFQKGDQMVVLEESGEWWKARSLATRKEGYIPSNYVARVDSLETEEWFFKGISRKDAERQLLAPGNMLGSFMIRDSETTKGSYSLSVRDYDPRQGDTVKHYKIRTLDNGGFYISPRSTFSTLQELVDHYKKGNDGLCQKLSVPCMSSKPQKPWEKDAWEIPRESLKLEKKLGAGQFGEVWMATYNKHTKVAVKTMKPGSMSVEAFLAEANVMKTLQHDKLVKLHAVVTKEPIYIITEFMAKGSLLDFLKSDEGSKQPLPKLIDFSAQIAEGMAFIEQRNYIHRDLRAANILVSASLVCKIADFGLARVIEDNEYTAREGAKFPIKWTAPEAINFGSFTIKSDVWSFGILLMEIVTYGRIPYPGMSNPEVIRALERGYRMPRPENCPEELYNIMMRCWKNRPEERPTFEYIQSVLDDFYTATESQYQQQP

[4] = Cmax in NOD/SCID mouse at 40 mg/kg, ip administered as single dose by LC-MS/MS method; type: ADME, organism-based; parameters: dose 40 mg/kg, route intraperitoneal; details: in vivo
Sus scrofa = organism: Sus scrofa; test: Inhibition of pig CK1delta/epsilon
[5] = biological target: Ephrin type-A receptor 1 (Homo sapiens) (UniProt P21709); test: Inhibition of human wild type partial length EPHA1 (V588 to I913 residues) expressed in bacterial expression system at 10 uM by KinomeScan method relative to control
MCF7 = test: Cytotoxicity against human MCF7 cells at 10 uM by MTT assay; type: functional
[6] = biological target: Platelet-derived growth factor receptor beta (Homo sapiens) (UniProt P09619); test: Inhibition of human wild type partial length PDGFRB (V582 to Y1009 residues) expressed in bacterial expression system at 10 uM by KinomeScan method relative to control
Sequence of Platelet-derived growth factor receptor beta (Homo sapiens) (P09619 whole entry, the tested form may be a part): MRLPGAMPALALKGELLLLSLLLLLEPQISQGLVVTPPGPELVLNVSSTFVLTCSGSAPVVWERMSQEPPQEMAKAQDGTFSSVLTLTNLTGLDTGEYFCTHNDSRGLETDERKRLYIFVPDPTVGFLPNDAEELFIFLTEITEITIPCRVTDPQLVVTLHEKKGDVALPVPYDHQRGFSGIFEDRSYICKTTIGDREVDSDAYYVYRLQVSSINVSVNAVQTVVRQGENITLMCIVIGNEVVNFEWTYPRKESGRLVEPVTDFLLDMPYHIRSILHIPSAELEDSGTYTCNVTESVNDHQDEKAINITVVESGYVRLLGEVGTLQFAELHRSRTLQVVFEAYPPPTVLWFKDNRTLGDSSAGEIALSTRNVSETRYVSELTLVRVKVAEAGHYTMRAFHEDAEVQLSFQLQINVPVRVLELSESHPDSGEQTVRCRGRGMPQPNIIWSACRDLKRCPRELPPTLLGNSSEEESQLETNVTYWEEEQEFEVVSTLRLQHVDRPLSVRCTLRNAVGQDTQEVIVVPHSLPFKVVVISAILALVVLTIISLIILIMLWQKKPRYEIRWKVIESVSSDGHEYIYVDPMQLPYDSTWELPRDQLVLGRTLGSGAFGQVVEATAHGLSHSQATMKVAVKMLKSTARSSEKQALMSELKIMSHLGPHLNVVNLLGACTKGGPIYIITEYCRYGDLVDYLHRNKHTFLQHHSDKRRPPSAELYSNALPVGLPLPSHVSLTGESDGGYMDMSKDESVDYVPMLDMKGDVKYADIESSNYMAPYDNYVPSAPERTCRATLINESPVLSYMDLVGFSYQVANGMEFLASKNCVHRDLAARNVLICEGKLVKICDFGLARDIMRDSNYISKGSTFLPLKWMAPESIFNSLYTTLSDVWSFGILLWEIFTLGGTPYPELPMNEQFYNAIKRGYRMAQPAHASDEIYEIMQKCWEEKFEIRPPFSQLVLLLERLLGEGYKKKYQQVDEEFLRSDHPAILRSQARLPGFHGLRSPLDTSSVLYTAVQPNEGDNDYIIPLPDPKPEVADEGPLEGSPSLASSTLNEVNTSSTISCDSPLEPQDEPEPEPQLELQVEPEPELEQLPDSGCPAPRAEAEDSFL

[7] = biological target: Receptor-interacting serine/threonine-protein kinase 3 (Homo sapiens) (UniProt Q9Y572); test: Inhibition of human RIPK3
Sequence of Receptor-interacting serine/threonine-protein kinase 3 (Homo sapiens) (Q9Y572 whole entry, looked up, the tested form may be a part): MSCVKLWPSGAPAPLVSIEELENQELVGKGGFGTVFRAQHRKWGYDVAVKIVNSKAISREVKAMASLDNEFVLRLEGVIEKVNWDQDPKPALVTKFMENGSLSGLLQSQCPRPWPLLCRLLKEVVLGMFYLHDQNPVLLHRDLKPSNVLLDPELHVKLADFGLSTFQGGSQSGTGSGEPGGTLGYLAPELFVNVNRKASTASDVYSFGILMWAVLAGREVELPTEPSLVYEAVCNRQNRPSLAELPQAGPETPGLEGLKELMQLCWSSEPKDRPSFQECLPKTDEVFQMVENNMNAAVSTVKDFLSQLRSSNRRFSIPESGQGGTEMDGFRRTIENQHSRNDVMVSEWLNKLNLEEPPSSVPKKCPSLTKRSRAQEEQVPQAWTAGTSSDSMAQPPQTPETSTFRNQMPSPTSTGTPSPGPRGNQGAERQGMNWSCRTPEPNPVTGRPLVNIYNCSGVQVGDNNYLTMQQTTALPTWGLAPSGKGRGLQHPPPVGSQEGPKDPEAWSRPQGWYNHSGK

[8] = biological target: Dual specificity mitogen-activated protein kinase kinase 4 (Homo sapiens) (UniProt P45985); test: Inhibition of human wild type partial length MEK4 (S84 to D399 residues) expressed in mammalian expression system at 10 uM by KinomeScan method relative to control
Sequence of Dual specificity mitogen-activated protein kinase kinase 4 (Homo sapiens) (P45985 whole entry, the tested form may be a part): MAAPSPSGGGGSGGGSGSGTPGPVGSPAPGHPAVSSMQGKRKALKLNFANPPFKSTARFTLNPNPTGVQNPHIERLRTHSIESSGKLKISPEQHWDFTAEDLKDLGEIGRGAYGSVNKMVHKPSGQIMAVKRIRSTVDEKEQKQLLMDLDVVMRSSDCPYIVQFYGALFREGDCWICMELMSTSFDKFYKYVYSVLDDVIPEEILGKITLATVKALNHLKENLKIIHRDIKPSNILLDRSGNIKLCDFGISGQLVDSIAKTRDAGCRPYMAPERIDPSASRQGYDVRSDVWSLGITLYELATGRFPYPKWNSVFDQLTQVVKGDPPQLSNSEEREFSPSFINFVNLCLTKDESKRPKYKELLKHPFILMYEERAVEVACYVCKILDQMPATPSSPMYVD

[9] = biological target: Fibroblast growth factor receptor 1 (Homo sapiens) (UniProt P11362); test: Inhibition of human wild type partial length FGFR1 (P357 to V669 residues) expressed in bacterial expression system at 10 uM by KinomeScan method relative to control
Sequence of Fibroblast growth factor receptor 1 (Homo sapiens) (P11362 22-822 limits assumed): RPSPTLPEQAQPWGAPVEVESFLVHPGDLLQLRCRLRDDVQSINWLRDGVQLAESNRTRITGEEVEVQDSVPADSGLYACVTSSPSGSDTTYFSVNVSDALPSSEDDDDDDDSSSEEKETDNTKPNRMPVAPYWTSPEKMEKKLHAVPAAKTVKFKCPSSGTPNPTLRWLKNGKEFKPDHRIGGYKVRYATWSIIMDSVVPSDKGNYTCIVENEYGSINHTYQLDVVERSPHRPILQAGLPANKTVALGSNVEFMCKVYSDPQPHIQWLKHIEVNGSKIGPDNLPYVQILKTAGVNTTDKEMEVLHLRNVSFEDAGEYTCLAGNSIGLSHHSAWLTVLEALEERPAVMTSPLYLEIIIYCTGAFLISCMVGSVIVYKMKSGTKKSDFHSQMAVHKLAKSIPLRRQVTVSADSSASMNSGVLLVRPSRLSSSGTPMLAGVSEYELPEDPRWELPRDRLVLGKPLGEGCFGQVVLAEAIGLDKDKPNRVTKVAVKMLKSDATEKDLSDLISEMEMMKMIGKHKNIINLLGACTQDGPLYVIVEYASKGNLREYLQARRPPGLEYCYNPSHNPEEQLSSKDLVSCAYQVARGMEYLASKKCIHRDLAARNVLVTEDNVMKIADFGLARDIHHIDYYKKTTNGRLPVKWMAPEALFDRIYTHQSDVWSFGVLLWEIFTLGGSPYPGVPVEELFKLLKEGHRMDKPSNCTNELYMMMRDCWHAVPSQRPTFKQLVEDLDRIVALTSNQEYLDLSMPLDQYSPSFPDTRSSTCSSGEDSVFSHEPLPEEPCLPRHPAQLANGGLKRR

[10] = Tmax in NOD/SCID mouse at 10 mg/kg, ip administered twice by LC-MS/MS method; type: ADME, organism-based; details: in vivo
[11] = biological target: Phosphatidylinositol 4,5-bisphosphate 3-kinase catalytic subunit alpha isoform (Homo sapiens, UniProt P42336); test: Inhibition of PI3Kalpha catalytic domain (unknown origin) using PIP2 liposomes as substrate in presence of biotin-labeled PIP3 and GST-GRP1-PH by streptavidin-HRP based assays
[12] = biological target: Mitogen-activated protein kinase kinase kinase 1 (Homo sapiens) (UniProt Q13233); test: Inhibition of human wild type partial length MAP3K1 (L1202 to W1512 residues) expressed in mammalian expression system at 10 uM by KinomeScan method relative to control
HCC1954 [13] = test: Cytotoxicity against human HCC1954 cells at 10 uM by MTT assay; type: functional
[14] = biological target: Mast/stem cell growth factor receptor Kit (Homo sapiens) (UniProt P10721); test: Inhibition of recombinant human GST-tagged KIT (544-end residues) transphosphorylation activity expressed in baculovirus infected Sf9 cells using poly[Glu:Tyr] (4:1) as substrate after 60 mins
Mus musculus [15] = test: In vivo inhibition of ERK1/2 phosphorylation at Thr202/Tyr204 residue in NOD/SCID mouse tumor xenografted with HER2-amplified human HCC1954 cells at 10 mg/kg, ip administered once daily for 18 days measured after 1 hr last dose; type: functional, organism-based
[16] = biological target: Hepatocyte growth factor receptor (Homo sapiens) (UniProt P08581); test: Inhibition of human wild type partial length MET (D1010 to S1367 residues) expressed in bacterial expression system at 10 uM by KinomeScan method relative to control
[17] = Tmax in NOD/SCID mouse at 0.5 mg/kg, po administered as single dose by LC-MS/MS method; type: ADME, organism-based; details: in vivo
[18] = biological target: Tyrosine-protein kinase TXK (Homo sapiens) (UniProt P42681); test: Inhibition of human wild type partial length TXK (L238 to W527 residues) expressed in bacterial expression system at 10 uM by KinomeScan method relative to control
Sequence of Tyrosine-protein kinase TXK (Homo sapiens) (P42681 whole entry, the tested form may be a part): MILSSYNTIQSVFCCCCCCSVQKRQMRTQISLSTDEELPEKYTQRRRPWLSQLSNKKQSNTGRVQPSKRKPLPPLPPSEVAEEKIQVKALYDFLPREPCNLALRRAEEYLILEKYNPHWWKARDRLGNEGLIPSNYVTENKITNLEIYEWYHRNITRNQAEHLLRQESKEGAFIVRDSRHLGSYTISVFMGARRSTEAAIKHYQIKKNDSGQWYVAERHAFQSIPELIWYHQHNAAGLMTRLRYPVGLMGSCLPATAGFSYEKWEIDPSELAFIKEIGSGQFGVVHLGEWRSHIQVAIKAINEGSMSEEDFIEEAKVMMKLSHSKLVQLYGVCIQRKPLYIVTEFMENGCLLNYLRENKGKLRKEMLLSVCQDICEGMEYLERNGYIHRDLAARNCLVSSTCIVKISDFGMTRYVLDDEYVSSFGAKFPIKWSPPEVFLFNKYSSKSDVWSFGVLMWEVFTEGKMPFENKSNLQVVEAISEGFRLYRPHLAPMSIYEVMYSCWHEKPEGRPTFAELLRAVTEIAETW

[19] = biological target: Tyrosine-protein kinase SYK (Homo sapiens) (UniProt P43405); test: Inhibition of human wild type partial length SYK (D354 to N635 residues) expressed in bacterial expression system at 10 uM by KinomeScan method relative to control
[20] = biological target: Aurora kinase B/Inner centromere protein (Homo sapiens) (UniProt Q96GD4+Q9NQS7); test: Inhibition of human AURKB/INCENP; type: protein-complex assay
[21] = biological target: Macrophage colony-stimulating factor 1 receptor (Homo sapiens) (UniProt P07333); test: Inhibition of human wild type partial length CSF1R (I564 to S939 residues) expressed in bacterial expression system at 10 uM by KinomeScan method relative to control
[22] = Cmax in NOD/SCID mouse at 0.5 mg/kg, po administered as single dose by LC-MS/MS method; type: ADME, organism-based; parameters: dose 0.5 mg/kg, route oral; details: in vivo
[23] = biological target: Vascular endothelial growth factor receptor 2 (Homo sapiens) (UniProt P35968); test: Inhibition of recombinant human GST-tagged VEGFR-2 (789-end residues) transphosphorylation activity expressed in baculovirus infected Sf9 cells using poly[Glu:Tyr] (4:1) as substrate after 60 mins
Mus musculus [24] = test: In vivo inhibition of Akt phosphorylation at Ser473 residue in NOD/SCID mouse tumor xenografted with HER2-amplified human HCC1954 cells at 10 mg/kg, ip administered once daily for 18 days measured after 1 hr last dose; type: functional, organism-based
[25] = AUC (0 to 8 hrs) in NOD/SCID mouse at 0.5 mg/kg, po administered as single dose by LC-MS/MS method; type: ADME, organism-based; parameters: time < 8 hr, dose 0.5 mg/kg, route oral; details: in vivo
Mus musculus [26] = test: In vivo inhibition of Akt phosphorylation at ser-473 residue in NOD/SCID mouse tumor xenografted with HER2-amplified human HCC1954 cells at 10 mg/kg, ip administered once daily for 18 days measured after 1 hr last dose by […]; type: functional, organism-based
[27] = biological target: Platelet-derived growth factor receptor beta (Homo sapiens) (UniProt P09619); test: Inhibition of recombinant human GST-tagged PDGFR-beta (557-end residues) transphosphorylation activity expressed in baculovirus infected Sf9 cells using poly[Glu:Tyr] (4:1) as substrate after 60 mins
[28] = biological target: Serine/threonine-protein kinase 4 (Homo sapiens) (UniProt Q13043); test: Inhibition of human wild type full length MST1 (M1 to F487 residues) expressed in bacterial expression system at 10 uM by KinomeScan method relative to control
[29] = biological target: Focal adhesion kinase 1 (Homo sapiens) (UniProt Q05397); test: Inhibition of human wild type partial length FAK (D402 to R696 residues) expressed in bacterial expression system at 10 uM by KinomeScan method relative to control
[30] = biological target: Tyrosine-protein kinase JAK3 (Homo sapiens) (UniProt P52333); test: Inhibition of human wild type partial length JAK3 (I781 to S1124 residues) expressed in mammalian expression system at 10 uM by KinomeScan method relative to control
Sequence of Tyrosine-protein kinase JAK3 (Homo sapiens) (P52333 whole entry, the tested form may be a part): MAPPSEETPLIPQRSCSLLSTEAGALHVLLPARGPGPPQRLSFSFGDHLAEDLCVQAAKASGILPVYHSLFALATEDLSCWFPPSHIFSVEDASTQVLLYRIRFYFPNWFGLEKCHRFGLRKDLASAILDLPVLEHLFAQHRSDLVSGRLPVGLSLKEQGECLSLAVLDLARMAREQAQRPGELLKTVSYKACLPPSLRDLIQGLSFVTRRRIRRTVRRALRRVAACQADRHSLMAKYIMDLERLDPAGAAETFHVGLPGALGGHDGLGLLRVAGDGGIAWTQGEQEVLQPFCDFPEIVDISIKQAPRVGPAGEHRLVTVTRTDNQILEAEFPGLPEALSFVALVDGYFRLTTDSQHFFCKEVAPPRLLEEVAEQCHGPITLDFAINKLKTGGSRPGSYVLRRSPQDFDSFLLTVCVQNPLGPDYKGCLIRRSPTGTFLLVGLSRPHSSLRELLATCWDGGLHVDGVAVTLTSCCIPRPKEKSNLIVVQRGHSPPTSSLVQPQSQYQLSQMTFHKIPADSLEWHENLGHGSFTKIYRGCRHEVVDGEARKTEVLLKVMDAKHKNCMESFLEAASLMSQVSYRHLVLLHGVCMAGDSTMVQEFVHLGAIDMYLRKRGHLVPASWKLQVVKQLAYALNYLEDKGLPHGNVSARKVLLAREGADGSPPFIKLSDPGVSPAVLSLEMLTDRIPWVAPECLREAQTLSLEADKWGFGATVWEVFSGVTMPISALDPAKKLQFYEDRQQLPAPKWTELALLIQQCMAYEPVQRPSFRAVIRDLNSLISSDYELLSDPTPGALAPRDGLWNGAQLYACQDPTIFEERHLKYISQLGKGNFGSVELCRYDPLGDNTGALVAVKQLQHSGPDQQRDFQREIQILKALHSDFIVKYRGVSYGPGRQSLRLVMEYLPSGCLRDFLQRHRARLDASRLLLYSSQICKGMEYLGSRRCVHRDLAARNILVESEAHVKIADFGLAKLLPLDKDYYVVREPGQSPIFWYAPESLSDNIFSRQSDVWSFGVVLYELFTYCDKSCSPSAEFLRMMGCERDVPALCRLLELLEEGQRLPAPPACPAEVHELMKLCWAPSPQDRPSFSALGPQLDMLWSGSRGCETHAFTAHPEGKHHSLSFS

Cc1nc2nc(Sc3ccccc3)cnc2cc1NC(=O)Nc1ccccc1
Activity (HCC1954 [1]): 150 mm3
AUC(0-t) at 8 h [2]: 131 µM·h
inhibition [3]: 13%
Cmax [4]: 18.7 µM
inhibition (Sus scrofa): inactive
inhibition [5]: 9%
Activity (MCF7): >50%
inhibition [6]: 0%
inhibition [7]: inactive
inhibition [8]: 0%
inhibition [9]: 18%
Tmax [10]: 2 h
IC50 [11]: 26 µM
inhibition [12]: 0%
Activity (HCC1954 [13]): >50%
inhibition [14]: inactive
inhibition (Mus musculus [15]): Active
inhibition [16]: 40%
Tmax [17]: 1 h
inhibition [18]: 8%
inhibition [19]: 10%
inhibition [20]: inactive
inhibition [21]: 0%
Cmax [22]: 0.47 µM
inhibition [23]: inactive
inhibition (Mus musculus [24]): Active
AUC(0-t) at 8 h [25]: 1.53 µM·h
inhibition (Mus musculus [26]): Active
inhibition [27]: inactive
inhibition [28]: 0%
inhibition [29]: 0%
inhibition [30]: 0%

Source: ChEMBL document CHEMBL4000195, “Design and synthesis of novel 7-aminosubstituted pyrido[2,3-b]pyrazines exhibiting anti-breast cancer activity” (Eur J Med Chem, 2017)
